Results as given in paper PMC7722097 (ChemMedChem, 2020).
“Also recorded” adds a separate entry of the source.

Experiments:
[1] = target: cIAP1-BIR3 (Homo sapiens, UniProt Q13490); test: DELFIA displacement assay, cIAP1-BIR3; assay type: binding
[2] = target: cIAP2-BIR3 (Homo sapiens, UniProt Q13489); test: DELFIA displacement assay, cIAP2-BIR3; assay type: binding
[3] = target: T1, BIR3 domain of XIAP (Homo sapiens, UniProt P98170); test: Kinetic analysis using the DELFIA assay; assay type: binding
[4] = target: HA-BIR3 of XIAP-expressing HEK293T cells (Homo sapiens, UniProt P98170); test: Immunoblot of HA-BIR3 XIAP-expressing HEK293T cells; assay type: cell-based; conditions: 10 μM compound, 6 h, anti-HA antibody
[5] = target: T1, BIR3 domain of XIAP; test: DELFIA displacement assay, XIAP-BIR3; assay type: binding
[6] = target: wt-BIR3 (Lys311) domain of XIAP (Homo sapiens, UniProt P98170); test: Denaturation thermal shift, wt BIR3 of XIAP; conditions: for Thermal shift data ATm XIAP-BIR3: Table 2
Sequence of wt-BIR3 (Lys311) domain of XIAP (P98170 253-347): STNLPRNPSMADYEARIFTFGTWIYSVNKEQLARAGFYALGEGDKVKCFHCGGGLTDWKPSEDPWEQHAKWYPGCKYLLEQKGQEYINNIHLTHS

T1 sequence (P98170 253-347): as above
Sequence of HA-BIR3 of XIAP-expressing HEK293T cells (P98170 253-347 limits assumed): as the sequence (P98170 253-347) above
Sequence of cIAP1-BIR3 (Q13490 258-363): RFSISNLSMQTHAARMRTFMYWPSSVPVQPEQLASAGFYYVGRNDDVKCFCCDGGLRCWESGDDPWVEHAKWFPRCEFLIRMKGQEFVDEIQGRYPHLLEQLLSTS
Sequence of cIAP2-BIR3 (Q13489 244-349): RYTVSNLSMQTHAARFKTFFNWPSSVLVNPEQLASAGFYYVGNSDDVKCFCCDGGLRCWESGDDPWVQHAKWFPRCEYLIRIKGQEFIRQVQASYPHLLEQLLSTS

| SMILES | IC50 [1] [µM] | IC50 [2] [µM] | Ki [3] [µM] | Covalent adduct formation in cell (band shift) [4] | Stabilization of HA-BIR3 in cell (western blot band intensity) [4] | IC50 [5] [µM] | Selectivity XIAP vs cIAP1/2, in words ([5]; from DELFIA IC50 values of Table 2) | Thermal shift data ATm XIAP-BIR3 ([6]; pre-incubation 30min (top value) at room temperature) [°C] | Thermal shift data ATm XIAP-BIR3 ([6]; pre-incubation 2h (bottom value) at room temperature) [°C] | ΔTm, BIR3 domain of XIAP, as stated in text or legend ([6]; approximate values or bounds in running text, incubation 30 min or 2 h) [°C] |
| --- | --- | --- | --- | --- | --- | --- | --- | --- | --- | --- |
| CN[C@@H](C)C(=O)N[C@@H](CNCc1ccc(S(=O)(=O)F)cc1)C(=O)N1CCC[C@H]1C(=O)N[C@@H]1CCc2c(F)cccc21 [compound 12, 4-((((S)-3-((S)-2-(((R)-4-fluoro-2,3-dihydro-1Hinden-1-yl)carbamoyl)pyrrolidin-1-yl)-2-((S)-2(methylamino)propanamido)-3oxopropyl)amino)methyl)benzene-1-sulfonyl fluoride] | 0.022 ± 0.004 | 0.0585 ± 0.0001 | – | – | – | – | – | – | – | – |
| CN[C@@H](C)C(=O)N[C@@H](CNC(=O)c1ccc(S(=O)(=O)F)c(OC)c1)C(=O)N1CCC[C@H]1C(=O)N[C@@H]1CCc2c(F)cccc21 [compound 13, 4-(((S)-3-((S)-2-(((R)-4-fluoro-2,3-dihydro-1Hinden-1-yl)carbamoyl)pyrrolidin-1-yl)-2-((S)-2(methylamino)propanamido)-3-oxopropyl)carbamoyl)-2methoxybenzene-1-sulfonyl fluoride] | 0.141 ± 0.015 | 0.492 ± 0.026 | 0.085 ± 0.003 | band shift | stabilized HA-BIR3; also recorded: most intense band | 0.0156 ± 0.0008 | more potent towards XIAP; also recorded: significantly more selective for XIAP compared to cIAP1/2 | 27.0 ± 0.2 | 27.2 ± 0.1 | > 20 |
